Source: publication PMC9049607 (Microbial Biotechnology, 2021)
Like-named read-outs stand apart in the source and are kept apart here.

Tests used:
AdhE = AdhE (Escherichia coli, UniProt P0A9Q7); assay: NADH consumption at […] nm, specific activity; format: biochemical; conditions: 5 mM substrate, 0.2 mM NADH, 100 mM PBS pH 8.0, 30°C
OYE2p = conditions: read-out: Enzyme / Y84V, 100 mM PBS pH 8.0, 30°C
YahK = biological target: T1, YahK (Escherichia coli, UniProt P75691); assay: NADH consumption at […] nm, specific activity; format: biochemical; conditions: 5 mM substrate, 0.2 mM NADH, 100 mM PBS pH 8.0, 30°C
T1 sequence (P75691 1-349): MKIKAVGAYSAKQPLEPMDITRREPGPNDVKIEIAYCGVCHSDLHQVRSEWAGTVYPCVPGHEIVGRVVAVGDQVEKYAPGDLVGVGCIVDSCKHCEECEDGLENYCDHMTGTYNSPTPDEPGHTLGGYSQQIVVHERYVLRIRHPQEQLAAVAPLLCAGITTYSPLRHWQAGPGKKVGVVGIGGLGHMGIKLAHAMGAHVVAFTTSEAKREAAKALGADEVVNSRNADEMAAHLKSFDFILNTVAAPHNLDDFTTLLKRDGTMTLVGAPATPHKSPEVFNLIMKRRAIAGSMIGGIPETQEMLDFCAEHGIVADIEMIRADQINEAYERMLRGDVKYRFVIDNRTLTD

AdhE, sequence (P0A9Q7 2-891): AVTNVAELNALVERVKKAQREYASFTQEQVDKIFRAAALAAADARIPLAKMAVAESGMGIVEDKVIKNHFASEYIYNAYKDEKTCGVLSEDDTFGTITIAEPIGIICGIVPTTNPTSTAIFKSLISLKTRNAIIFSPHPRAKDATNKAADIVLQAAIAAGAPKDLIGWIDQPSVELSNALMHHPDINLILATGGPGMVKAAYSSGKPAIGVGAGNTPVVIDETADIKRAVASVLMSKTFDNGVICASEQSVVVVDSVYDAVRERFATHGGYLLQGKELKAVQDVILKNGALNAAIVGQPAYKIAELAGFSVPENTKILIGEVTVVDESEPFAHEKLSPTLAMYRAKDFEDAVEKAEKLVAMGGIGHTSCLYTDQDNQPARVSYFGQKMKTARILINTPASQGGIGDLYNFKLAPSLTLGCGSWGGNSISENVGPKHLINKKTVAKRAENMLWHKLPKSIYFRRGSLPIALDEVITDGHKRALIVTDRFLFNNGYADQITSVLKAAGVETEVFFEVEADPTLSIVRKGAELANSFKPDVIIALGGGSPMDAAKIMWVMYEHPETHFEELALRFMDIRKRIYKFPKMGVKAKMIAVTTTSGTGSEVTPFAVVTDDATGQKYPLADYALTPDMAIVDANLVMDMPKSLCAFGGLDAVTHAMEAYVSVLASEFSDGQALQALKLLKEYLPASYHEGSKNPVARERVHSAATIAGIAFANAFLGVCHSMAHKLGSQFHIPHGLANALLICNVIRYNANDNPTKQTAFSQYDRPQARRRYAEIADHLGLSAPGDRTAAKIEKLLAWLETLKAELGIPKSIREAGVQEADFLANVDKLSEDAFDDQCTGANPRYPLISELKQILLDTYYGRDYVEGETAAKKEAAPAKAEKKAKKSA

| Compound | NADH consumption at 340 nm, specific activity (AdhE) | Km (OYE2p; 0.2 mM NADH) | Km (OYE2p; 5 mM (E/Z)-citral) | NADH consumption at 340 nm, specific activity (YahK) |
| --- | --- | --- | --- | --- |
| CC(C)=CCC/C(C)=C/C=O [(E)-citral] | these enzymes have catalytic activity for the tested substrates | 107 ± 26 µM | – | – |
| CC(C)=CCC/C(C)=C\C=O [(Z)-citral] | – | 326 ± 84 µM | – | – |
| NC(=O)C1=CN([C@@H]2O[C@H](COP(=O)(O)OP(=O)(O)OC[C@H]3O[C@@H](n4cnc5c(N)ncnc54)[C@H](O)[C@@H]3O)[C@@H](O)[C@H]2O)C=CC1 [NADH] | – | – | 27 ± 8 µM | – |
| CC(C)=CCCC(C)CC=O (stereo not drawn) [citronellal] | approximately twice higher than that of AdhE and YahK | – | – | approximately twice higher than that of AdhE and YahK |
